Assay results as given in patent EP1433789A1, “Pyrrolopyrazines and their use as selective apoptosis inducers” (Aponetics AG, priority 2002, dated 2004).

Assays:
[1] = system: Jurkat; assay: BrdU incorporation (proliferation); type: cell-based, human; design: key: 0 for no activity; 1 for a moderate inhibition; 2 for strong inhibition of proliferation; conditions: 48 h
Protocol: (§1) Adherent cells are seeded out at 2 - 4*10^4 cells/well/ml in 24 well tissue culture plates 24 h prior to treatment. Suspension cells are seeded out at 2*10^5 cells/ml/well in 24 well plates. Compounds are added leading to final concentrations of 3 µM and 10 µM, respectively. Subsequently, BrdU (Molecular Probes #B-23151) at 10 µM final concentration is added and the plates are incubated for 48 h. After the incubation cells are processed according to standard procedures. The detection of the incorporated BrdU is done with the anti-bromodeoxyuridine Mab PRB-1, Alexa Fluor 660 conjugate (Molecular Probes #A-21306). The analysis is performed on a FACSCalibur™ by monitoring the fluorescence activity on FL3. The readout reflects DNA synthesis which is a hallmark for proliferation. The scores are defined the following: 0 for no activity, 1 for a moderate inhibition and 2 for strong inhibition of proliferation. Table 7 indicates inhibitory activities of several tested compounds on proliferation.

[2] = system: HeLa; assay: BrdU incorporation (proliferation); type: cell-based, human; design: key: 0 for no activity; 1 for a moderate inhibition; 2 for strong inhibition of proliferation; conditions: 48 h
Protocol: as §1

[3] = system: K562; assay: Hoechst 33342 nuclear staining (Table 3); type: cell-based, human; design: key: 0 relating to no activity; 1 relating to weak activity comprising less than 50% of the cells; score 2 relating to strong activity comprising more than 50% of the cells
Procedure, shortened: (§2)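 Adherent cells (3-5×10^3, pre-spread 24 h) or suspension cells (8-10×10^3) treated with compounds at 10, 3, 1 and 0.3 µM for 24 or 48 h, then Hoechst 33342 stained for 30 min. Apoptotic nuclear morphology scored by fluorescence microscopy: 0 none, 1 weak (<50% cells), 2 strong (>50% cells).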

[4] = system: Jurkat; assay: Hoechst 33342 nuclear staining (Table 3); type: cell-based, human; design: key: 0 relating to no activity; 1 relating to weak activity comprising less than 50% of the cells; score 2 relating to strong activity comprising more than 50% of the cells
Procedure, shortened: as §2

[5] = system: HeLa; assay: Hoechst 33342 nuclear staining (Table 3); type: cell-based, human; design: key: 0 relating to no activity; 1 relating to weak activity comprising less than 50% of the cells; score 2 relating to strong activity comprising more than 50% of the cells
Procedure, shortened: as §2

[6] = system: KB; assay: Hoechst 33342 nuclear staining (Table 3); type: cell-based, human; design: key: 0 relating to no activity; 1 relating to weak activity comprising less than 50% of the cells; score 2 relating to strong activity comprising more than 50% of the cells
Procedure, shortened: as §2

[7] = system: A20; assay: AnnexinV/7-AAD staining; type: cell-based, mouse; conditions: A20, 10 µM, 24 h treatment
Procedure, shortened: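 Cells treated with compound at 10 µM final for 24 h, then stained with AnnexinV-GST/anti-GST Alexa 488 and 7-AAD and analysed by flow cytometry. Percent positive cells scored as 0 (<10%), 1 (10–50%) or 2 (>50%).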

[8] = system: HeLa; assay: PI staining for cell cycle distribution; type: cell-based, human; design: key: 0 indicates no occurrence at all; 1 for weak; 2 for strong occurrence; conditions: HeLa 10 µM, 24 h
Protocol: 1 - 2*10^5 cells are seeded into 24 well tissue culture plates and incubated for 24 h prior to compound addition. Compounds are added for 24 h in a final concentration of 3 µM or 10 µM. Adherent cells are harvested by trypsinization. The cell suspensions are fixed by adding 2 parts ice cold ethanol 100% while vortexing. Then the samples are stored for > 2 h at-20°C. Subsequently the cells are washed with PBS once and resuspended in 250 µl PBS containing 50 µg/ml PI (Calbiochem # 537059), then the samples are incubated at 37°C for 30 minutes and subsequently analyzed on a FACSCalibur™ monitoring linear PI fluorescence activity on FL2.. The readout allows the detection of a possible direct or indirect influence of the tested compounds on the cell cycle. The following events can occur: a) Generation of a subG1 peak indicative for DNA fragmentation, b) increase of the cell population arrested in G2M phase. Both events are scored by 1 for weak and 2 for strong occurrence. 0 indicates no occurrence at all. […]

SMILES	BrdU incorporation (inhibition of proliferation) ([1]; 3uM)	BrdU incorporation (inhibition of proliferation) ([1]; 10uM)	BrdU incorporation (inhibition of proliferation) ([2]; 3uM)	Hoechst 33342 nuclear staining ([3]; K562, 24h, conc 0.3 (µM))	Hoechst 33342 nuclear staining ([3]; K562, 24h, conc 1 (µM))	Hoechst 33342 nuclear staining ([3]; K562, 24h, conc 3 (µM))	Hoechst 33342 nuclear staining ([3]; K562, 24h, conc 10 (µM))	Hoechst 33342 nuclear staining ([3]; K562, 48h, conc 0.3 (µM))	Hoechst 33342 nuclear staining ([3]; K562, 48h, conc 1 (µM))	Hoechst 33342 nuclear staining ([3]; K562, 48h, conc 3 (µM))	Hoechst 33342 nuclear staining ([3]; K562, 48h, conc 10 (µM))	Hoechst 33342 nuclear staining ([4]; 24h, conc 0.3 (µM))	Hoechst 33342 nuclear staining ([4]; 24h, conc 1 (µM))	Hoechst 33342 nuclear staining ([4]; 24h, conc 3 (µM))	Hoechst 33342 nuclear staining ([4]; 24h, conc 10 (µM))	Hoechst 33342 nuclear staining ([4]; 48h, conc 0.3 (µM))	Hoechst 33342 nuclear staining ([4]; 48h, conc 1 (µM))	Hoechst 33342 nuclear staining ([4]; 48h, conc 3 (µM))	Hoechst 33342 nuclear staining ([4]; 48h, conc 10 (µM))	Hoechst 33342 nuclear staining ([5]; 24h, conc 0.3 (µM))	further results
CC1Cc2ccccc2-c2c(Cl)c3nc4ccccc4nc3n21 (centres unmarked) [compound 11]	0	2	1	0	0	0	2 (score 2 relating to strong activity comprising more than 50% of the cells)	0	0	1 (1 relating to weak activity comprising less than 50% of the cells)	2 (score 2 relating to strong activity comprising more than 50% of the cells)	0	0	2 (score 2 relating to strong activity comprising more than 50% of the cells)	2 (score 2 relating to strong activity comprising more than 50% of the cells)	1 (1 relating to weak activity comprising less than 50% of the cells)	2 (score 2 relating to strong activity comprising more than 50% of the cells)	2 (score 2 relating to strong activity comprising more than 50% of the cells)	2 (score 2 relating to strong activity comprising more than 50% of the cells)	0	Hoechst 33342 nuclear staining ([5]; 24h, conc 1 (µM)): 0; Hoechst 33342 nuclear staining ([5]; 24h, conc 3 (µM)): 0; Hoechst 33342 nuclear staining ([5]; 24h, conc 10 (µM)): 0; Hoechst 33342 nuclear staining ([5]; 48h, conc 0.3 (µM)): 0; Hoechst 33342 nuclear staining ([5]; 48h, conc 1 (µM)): 0; Hoechst 33342 nuclear staining ([5]; 48h, conc 3 (µM)): 0; Hoechst 33342 nuclear staining ([5]; 48h, conc 10 (µM)): 2 (score 2 relating to strong activity comprising more than 50% of the cells); Hoechst 33342 nuclear staining ([6]; 24h, conc 0.3 (µM)): 0; Hoechst 33342 nuclear staining ([6]; 24h, conc 1 (µM)): 0; Hoechst 33342 nuclear staining ([6]; 24h, conc 3 (µM)): 0; Hoechst 33342 nuclear staining ([6]; 24h, conc 10 (µM)): 0; Hoechst 33342 nuclear staining ([6]; 48h, conc 0.3 (µM)): 0; Hoechst 33342 nuclear staining ([6]; 48h, conc 1 (µM)): 0; Hoechst 33342 nuclear staining ([6]; 48h, conc 3 (µM)): 1 (1 relating to weak activity comprising less than 50% of the cells); Hoechst 33342 nuclear staining ([6]; 48h, conc 10 (µM)): 2 (score 2 relating to strong activity comprising more than 50% of the cells); percentage of positively stained cells (AnnexinV/7-AAD staining) [7]: 1 (score 1 relates to more than 10% but less than 50%); G2M (increase of the cell population arrested in G2M phase) [8]: 0; subG1 (generation of a subG1 peak indicative for DNA fragmentation) [8]: 0
COc1cc2c(cc1OC)-c1c(Cl)c3nc4ccccc4nc3n1C(C)C2 (centres unmarked) [compound 12]	2	2	1	0	0	0	2 (score 2 relating to strong activity comprising more than 50% of the cells)	0	1 (1 relating to weak activity comprising less than 50% of the cells)	2 (score 2 relating to strong activity comprising more than 50% of the cells)	2 (score 2 relating to strong activity comprising more than 50% of the cells)	0	0	1 (1 relating to weak activity comprising less than 50% of the cells)	2 (score 2 relating to strong activity comprising more than 50% of the cells)	1 (1 relating to weak activity comprising less than 50% of the cells)	2 (score 2 relating to strong activity comprising more than 50% of the cells)	2 (score 2 relating to strong activity comprising more than 50% of the cells)	2 (score 2 relating to strong activity comprising more than 50% of the cells)	0	BrdU incorporation (inhibition of proliferation) ([2]; 10uM): 1; Hoechst 33342 nuclear staining ([5]; 24h, conc 1 (µM)): 0; Hoechst 33342 nuclear staining ([5]; 24h, conc 3 (µM)): 0; Hoechst 33342 nuclear staining ([5]; 24h, conc 10 (µM)): 0; Hoechst 33342 nuclear staining ([5]; 48h, conc 0.3 (µM)): 0; Hoechst 33342 nuclear staining ([5]; 48h, conc 1 (µM)): 1 (1 relating to weak activity comprising less than 50% of the cells); Hoechst 33342 nuclear staining ([5]; 48h, conc 3 (µM)): 2 (score 2 relating to strong activity comprising more than 50% of the cells); Hoechst 33342 nuclear staining ([5]; 48h, conc 10 (µM)): 2 (score 2 relating to strong activity comprising more than 50% of the cells); Hoechst 33342 nuclear staining ([6]; 24h, conc 0.3 (µM)): 0; Hoechst 33342 nuclear staining ([6]; 24h, conc 1 (µM)): 0; Hoechst 33342 nuclear staining ([6]; 24h, conc 3 (µM)): 0; Hoechst 33342 nuclear staining ([6]; 24h, conc 10 (µM)): 2 (score 2 relating to strong activity comprising more than 50% of the cells); Hoechst 33342 nuclear staining ([6]; 48h, conc 0.3 (µM)): 0; Hoechst 33342 nuclear staining ([6]; 48h, conc 1 (µM)): 0; Hoechst 33342 nuclear staining ([6]; 48h, conc 3 (µM)): 2 (score 2 relating to strong activity comprising more than 50% of the cells); Hoechst 33342 nuclear staining ([6]; 48h, conc 10 (µM)): 2 (score 2 relating to strong activity comprising more than 50% of the cells); percentage of positively stained cells (AnnexinV/7-AAD staining) [7]: 2 (score 2 relates to more than 50% positivity); G2M (increase of the cell population arrested in G2M phase) [8]: 0; subG1 (generation of a subG1 peak indicative for DNA fragmentation) [8]: 0
